Data on eight molecules can be found in patent EP4578861A1, “NOVEL TRICYCLIC HETEROCYCLIC CARBALDEHYDE COMPOUND AND PHARMACEUTICAL COMPOSITION, CONTAINING SAME, FOR IRE1ALPHA INHIBITION” (Hanmi Pharm. Co., Ltd., priority 2022, dated 2024).

For the first assay, the system named is spliced XBP1. In words: Spliced XBP1 mRNA measurement test (RT-PCR, tunicamycin-induced ER stress in MCF-7 cells). It is filed as cell-based. Particulars: Homo sapiens, MCF7, compound pre-treated for 1 hour, then 2 µg/mL tunicamycin for 6 or 24 hours, spliced XBP1 corrected by total XBP1. The procedure: With respect to these synthetic compounds, reverse transcription polymerase chain reaction (RT-PCR) experiments were conducted on MCF-7 cancer cells to confirm the effect thereof on the mRNA and protein amounts of spliced XBP1, which is the target of IRE endonuclease. A reverse transcription polymerase chain reaction is a test method in which RNA is extracted from cells, reverse transcriptase is used to make cDNA, and relative mRNA expression level is measured through a polymerase chain reaction.
Briefly, MCF-7 cells were seeded in a 12-well plate and cultured in an incubator including 5% CO2 for one day. On the next day, compounds, which were 10-fold serially diluted from 10,000 nM, were pre-treated for 1 hour, and then, treated with 2 µg/mL tunicamycin for 6 or 24 hours to induce endoplasmic reticulum stress, followed by cell lysis to obtain RNA. RNA was subjected to the procedure of RNeasy Kits (Qiagen, 74106), and 5 µg of RNA sample was dissolved in a sample including reverse transcriptase and dNTP, and reverse transcription reaction was performed with a thermal cycler. The amount of mRNA of each of spliced XBP1 and total XBP1 was measured by a polymerase chain reaction through real time PCR by mixing each cDNA sample with a PCR reaction mixture including a primer pair capable of binding specifically to each target and SYBR green dye. The expression level of spliced XBP1 was corrected by the total expression level of XBP1, and the relative expression levels of spliced XBP1 between samples were compared and analyzed.
For orientation: IC50 means the concentration that inhibits the measured activity by half. In the case of `CCN(CC)C(=O)Cc1c(C)c2c3c(c(O)c(C=O)c2oc1=O)OCCC3` [Example 25, N,N-diethyl-2-(5-formyl-6-hydroxy-1-methyl-3-oxo-3,8,9,10-tetrahydropyrano[3,2-f]chromen-2-yl)acetamide], the IC50 was under 100 nM.
Same read-out and setting: then `CC(=O)N1CCN(C(=O)Cc2c(C)c3c4c(c(O)c(C=O)c3oc2=O)OCCC4)CC1` [Example 26, 2-(2-(4-acetylpiperazin-1-yl)-2-oxoethyl)-6-hydroxy-1-methyl-3-oxo-3,8,9,10-tetrahydropyrano[3,2-f]chromene-5-carbaldehyde], with at least 200 nM; and `Cc1c(CC(=O)N2CC3CC2CO3)c(=O)oc2c(C=O)c(O)c3c(c12)CCCO3` (centres unmarked) [Example 27, 2-(2-(2-oxa-5-azabicyclo[2.2.1]heptan-5-yl)-2-oxoethyl)-6-hydroxy-1-methyl-3-oxo-3,8,9,10-tetrahydropyrano[3,2-f]chromene-5-carbaldehyde], with under 100 nM.
Still for that read-out and setting: then `Cc1c(CC(=O)N2CCSCC2)c(=O)oc2c(C=O)c(O)c3c(c12)CCCO3` [Example 28, 6-hydroxy-1-methyl-3-oxo-2-(2-oxo-2-thiomorpholinoethyl)-3,8,9,10-tetrahydropyrano[3,2-f]chromene-5-carbaldehyde], with 100 to 200 nM; and `Cc1c(CC(=O)NCCN2CCOCC2)c(=O)oc2c(C=O)c(O)c3c(c12)CCCO3` [Example 29, 2-(5-formyl-6-hydroxy-1-methyl-3-oxo-3,8,9,10-tetrahydropyrano[3,2-f]chromen-2-yl)-N-(2-morpholinoethyl)acetamide], with at least 200 nM; and `Cc1c(CC(=O)N2CCSC2)c(=O)oc2c(C=O)c(O)c3c(c12)CCCO3` [Example 30, 6-hydroxy-1-methyl-3-oxo-2-(2-oxo-2-(thiazolidin-3-yl)ethyl)-3,8,9,10-tetrahydropyrano[3,2-f]chromene-5-carbaldehyde], with under 100 nM.
The same measure, in the same setting: then `Cc1c(CC(=O)N2CCNCC2)c(=O)oc2c(C=O)c(O)c3c(c12)CCCO3` [Example 31, 6-hydroxy-1-methyl-3-oxo-2-(2-oxo-2-(piperazin-1-yl)ethyl)-3,8,9,10-tetrahydropyrano[3,2-f]chromene-5-carbaldehyde], with at least 200 nM.

The same assay, now with this note: compound pre-treated for 1 hour, then 2 µg/mL tunicamycin for 6 or 24 hours, spliced XBP1 corrected by total XBP1.
Regarding `COc1cc2c(C)c(CC(=O)N3CCOCC3)c(=O)oc2c(C=O)c1O` [MKC8866, reference compound], the IC50 was under 100 nM.
